Measured values published in ChEMBL document CHEMBL4428113, “Antitubercular and cytotoxic tigliane-type diterpenoids from Croton tiglium” (Bioorg Med Chem Lett, 2016).

Experiments:
K562 = assay: Cytotoxicity against human K562 cells after 72 hrs by CCK8 assay; type: functional, cell-based; details: K562, 72 h
Huh-7 = assay: Cytotoxicity against human HuH7 cells after 72 hrs by CCK8 assay; type: functional, cell-based; details: Huh-7, 72 h
A549 = assay: Cytotoxicity against human A549 cells after 72 hrs by CCK8 assay; type: functional, cell-based; details: A549, 72 h
[1] = system: Mycobacterium tuberculosis; assay: Antitubercular activity against Mycobacterium tuberculosis H37Ra incubated for 7 days by Alamar blue dye-based fluorometric assay; type: functional, organism-based; details: 168 h

Structure (SMILES) | IC50 (K562) [µM] | IC50 (Huh-7) [µM] | IC50 (A549) [µM] | IC50 [1] [µM]
C/C=C(\C)C(=O)O[C@@H]1[C@@H](C)[C@]2(O)[C@@H]3C=C(C)C(=O)[C@@H]3CC(CO)=C[C@H]2[C@@H]2C(C)(C)[C@]12OC(C)=O | 0.07 | 3.36 | 8.5 | 20.5
CCC(C)C(=O)O[C@@]12[C@H](O)[C@@H](C)[C@@]3(O)[C@H]([C@@H]1C2(C)C)[C@@H](O)C(CO)=C[C@]1(O)C(=O)C(C)=C[C@@H]31 (some centres not stated) | 0.07 | 11.6 | 8.86 | > 30
CCC(C)C(=O)O[C@@]12[C@H](O)[C@@H](C)[C@@]3(O)[C@@H](C=C(CO)C[C@]4(O)C(=O)C(C)=C[C@@H]34)[C@@H]1C2(C)C (some centres not stated) | 0.05 | 34.2 | 43.5 | > 30
C/C=C(\C)C(=O)O[C@@H]1[C@@H](C)[C@]2(O)[C@@H]3C=C(C)C(=O)[C@@H]3CC(C=O)=C[C@H]2[C@@H]2C(C)(C)[C@]12OC(C)=O | 0.03 | 3.85 | 6.88 | 19.5
C/C=C(\C)C(=O)O[C@@H]1[C@@H](C)[C@@]2(O)[C@@H](C(=O)C(CO)=C[C@]3(O)C(=O)C(C)=C[C@@H]23)[C@@H]2C(C)(C)[C@]12OC(=O)C(C)C | 0.05 | 4.41 | 3.11 | 13.4
CCC(C)C(=O)O[C@@]12[C@H](O)[C@@H](C)[C@@]3(O)[C@@H](C(=O)C(CO)=C[C@]4(O)C(=O)C(C)=C[C@@H]34)[C@@H]1C2(C)C (some centres not stated) | 0.03 | 20.9 | 6.33 | 20.9
NNC(=O)c1ccncc1 [ISONIAZID] | – | – | – | 2.04
CC(=O)O[C@H]1C(=O)[C@@]2(C)[C@H]([C@H](OC(=O)c3ccccc3)[C@]3(O)C[C@H](OC(=O)[C@H](O)[C@@H](NC(=O)c4ccccc4)c4ccccc4)C(C)=C1C3(C)C)[C@]1(OC(C)=O)CO[C@@H]1C[C@@H]2O [PACLITAXEL] | 3.21 | 6.75 | 1.92 | –
CC1=C[C@H]2[C@@]3(O)[C@H](C)[C@@H](O)[C@]4(O)[C@H]([C@@H]3C=C(CO)C[C@]2(O)C1=O)C4(C)C [PHORBOL] | 0.1 | 5.93 | 15.3 | > 30
